For this assay, the target named is T1, PmrA (Salmonella enterica, UniProt A0A0F6BAF1).
T1 construct: gene basR
Kind of assay: isothermal titration calorimetry. In kind it is binding. A general note: In ITC the heat of successive injections is recorded.

Broadly, the Kd is the constant that tells how readily two partners part at equilibrium. A lower Kd goes with tighter binding.

T1 sequence (A0A0F6BAF1 entry or part of it): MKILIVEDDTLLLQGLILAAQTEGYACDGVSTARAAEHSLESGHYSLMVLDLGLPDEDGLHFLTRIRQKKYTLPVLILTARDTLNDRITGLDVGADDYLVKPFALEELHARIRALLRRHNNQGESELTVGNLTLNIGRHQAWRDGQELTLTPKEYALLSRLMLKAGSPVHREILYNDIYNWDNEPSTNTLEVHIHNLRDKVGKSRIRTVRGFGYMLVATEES

Molecule `C=CCc1ccc(O)c(-c2cc(CC=C)ccc2O)c1` [magnolol] gave a Kd of 2000 nM.

For the origin of these results see PMC12774351, “A lignan compound regulates LPS modifications via PmrA/B signaling cascades to potentiate colistin efficacy in vivo” (PLOS Pathogens, 2025).
